This note sets out measurements from BindingDB's records for doi:10.1021/acs.biochem.6b00412 (Duquesne University, 2016).

The term pKi denotes the Ki on a negative log10 scale, so that one unit is a factor of ten. A low value points to a high Ki.

pKi: −log10 of the molar value.

This test deals with T1, Trifunctional purine biosynthetic protein adenosine-3 (Homo sapiens, UniProt P22102).
T1 sequence (P22102 whole entry): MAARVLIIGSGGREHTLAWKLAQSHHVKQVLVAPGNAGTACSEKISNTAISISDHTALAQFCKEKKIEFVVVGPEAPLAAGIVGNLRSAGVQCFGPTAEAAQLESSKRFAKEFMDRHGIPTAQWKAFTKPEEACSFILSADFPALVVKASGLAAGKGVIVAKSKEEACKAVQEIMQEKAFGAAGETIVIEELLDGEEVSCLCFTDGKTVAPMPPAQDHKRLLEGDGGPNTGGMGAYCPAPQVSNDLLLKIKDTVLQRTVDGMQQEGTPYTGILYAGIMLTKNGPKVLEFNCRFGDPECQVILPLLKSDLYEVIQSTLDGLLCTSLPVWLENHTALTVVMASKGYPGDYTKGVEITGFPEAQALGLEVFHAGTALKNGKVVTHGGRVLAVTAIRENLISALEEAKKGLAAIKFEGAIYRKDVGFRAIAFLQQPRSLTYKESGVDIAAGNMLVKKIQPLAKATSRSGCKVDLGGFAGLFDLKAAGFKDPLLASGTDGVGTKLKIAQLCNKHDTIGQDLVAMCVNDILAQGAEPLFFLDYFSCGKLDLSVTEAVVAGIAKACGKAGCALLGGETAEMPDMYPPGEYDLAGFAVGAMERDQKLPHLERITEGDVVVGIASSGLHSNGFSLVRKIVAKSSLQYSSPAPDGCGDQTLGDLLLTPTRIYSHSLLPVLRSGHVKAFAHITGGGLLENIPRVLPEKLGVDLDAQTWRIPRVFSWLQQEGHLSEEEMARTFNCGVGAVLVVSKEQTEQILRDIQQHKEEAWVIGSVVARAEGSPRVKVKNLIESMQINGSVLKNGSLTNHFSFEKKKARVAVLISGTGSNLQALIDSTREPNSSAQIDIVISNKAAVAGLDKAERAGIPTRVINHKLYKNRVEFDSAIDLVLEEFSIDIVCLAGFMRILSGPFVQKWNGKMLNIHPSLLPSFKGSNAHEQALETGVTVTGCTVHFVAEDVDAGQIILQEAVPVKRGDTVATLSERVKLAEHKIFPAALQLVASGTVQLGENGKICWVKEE
Nature of the test: GAR Transformylase Inhibition Assay. Particulars: pH 7.5. The protocol: To initiate the assay, 150 μL of 20 nM His-GARFTase or buffer was added, and the plate was shaken for 5 s. […] For each antifolate, triplicate assays were performed at 20 different drug concentrations.
As for `Nc1nc2[nH]c(CCCCc3ccc(C(=O)N[C@@H](CCC(=O)O)C(O)O)cc3)cc2c(=O)[nH]1` [AGF23], the pKi is 7.77.
To `Nc1nc2[nH]c(CCCCCCCC(=O)N[C@@H](CCC(=O)O)C(=O)O)cc2c(=O)[nH]1` belongs 7.00; to `Nc1nc2[nH]c(CCCCc3ccc(C(=O)N[C@@H](CCC(=O)O)C(=O)O)s3)cc2c(=O)[nH]1` [(S)-2-({5-[4-(2-Amino-4-oxo-4,7-dihydro-3H-pyrrolo[2,3-d]-pyrimidin-6-yl)-butyl]-thiophene-2-carbonyl}-amino)-pentanedioicAcid], 7.66; to `Nc1nc2sc(CCCCc3ccc(C(=O)N[C@@H](CCC(=O)O)C(O)O)cc3)cc2c(=O)[nH]1` [AGF50], 5.97.
The figure for `Nc1nc2[nH]c(CCCCCCC(=O)N[C@H](CCC(=O)O)C(=O)O)cc2c(=O)[nH]1` [AGF145] is 7.17.
